One block for each compound: values may come before it.
How the values were obtained:
[1] = Cytotoxicity against human HCT8 cells after 96 hrs by MTT assay; assay type: functional, cell-based; settings: HCT-8, 96 h
[2] = Cytotoxicity against human Bel7402 cells after 96 hrs by MTT assay; assay type: functional, cell-based; settings: Bel-7402, 96 h
[3] = Cytotoxicity against human BGC823 cells after 96 hrs by MTT assay; assay type: functional, cell-based; settings: BGC-823, 96 h
[4] = Antiinflammatory activity in mouse BV2 cells assessed as inhibition of LPS-induced nitric oxide production after 24 hrs by Griess method; assay type: functional, cell-based; settings: BV-2, 24 h
A549 = assay: Cytotoxicity against human A549 cells after 96 hrs by MTT assay; assay type: functional, cell-based; settings: A549, 96 h
A2780 = assay: Cytotoxicity against human A2780 cells after 96 hrs by MTT assay; assay type: functional, cell-based; settings: A2780, 96 h
[5] = Cytotoxicity against mouse BV2 cells assessed as cell viability by MTT assay relative to LPS-treated control; assay type: cell-based, BV-2; design: concentration or dose not given beside the values; settings: read-out: Activity

IC50 [4]: > 10 µM
SMILES: C=C(CO)[C@@H]1CC[C@]2(C)CC[C@]3(C)[C@H](CC[C@@H]4[C@@]5(C)CC[C@@H](O)C(C)(C)[C@@H]5CC[C@]43C)[C@@H]12
IC50 [1]: > 10 µM
IC50 [2]: > 10 µM
IC50 [3]: > 10 µM
IC50 (A549): > 10 µM
IC50 (A2780): > 10 µM

IC50 [4]: 7.39 µM
SMILES: C[C@H](C(=O)O)[C@@H]1CC[C@]2(C)CC[C@]3(C)[C@H](CC[C@@H]4[C@@]5(C)CC[C@@H](O)C(C)(C)[C@@H]5CC[C@]43C)[C@@H]12
IC50 [1]: > 10 µM
IC50 [2]: > 10 µM
IC50 [3]: > 10 µM
IC50 (A549): > 10 µM
IC50 (A2780): > 10 µM
viability [5]: 87.3%

IC50 [4]: > 10 µM
SMILES: C[C@H](C(=O)O)[C@@H]1CC[C@]2(C)CC[C@]3(C)[C@H](CC[C@@H]4[C@@]5(C)CCC(=O)C(C)(C)[C@@H]5CC[C@]43C)[C@@H]12
IC50 [1]: > 10 µM
IC50 [2]: > 10 µM
IC50 [3]: > 10 µM
IC50 (A549): > 10 µM
IC50 (A2780): > 10 µM

IC50 [4]: 3.48 µM
SMILES: C[C@@H](O)[C@@H]1CC[C@]2(C)CC[C@]3(C)[C@H](CC[C@@H]4[C@@]5(C)CC[C@@H](O)C(C)(C)[C@@H]5CC[C@]43C)[C@@H]12
IC50 [1]: > 10 µM
IC50 [2]: > 10 µM
IC50 [3]: > 10 µM
IC50 (A549): > 10 µM
IC50 (A2780): > 10 µM
viability [5]: 94.2%

IC50 [4]: > 10 µM
SMILES: C[C@@H](CO)[C@@H]1CC[C@]2(C)C[C@H](O)[C@]3(C)[C@H](CC[C@@H]4[C@@]5(C)CCC(=O)C(C)(C)[C@@H]5CC[C@]43C)[C@@H]12
IC50 [1]: > 10 µM
IC50 [2]: > 10 µM
IC50 [3]: > 10 µM
IC50 (A549): > 10 µM
IC50 (A2780): > 10 µM

IC50 [4]: > 10 µM
SMILES: C=C(CO)[C@@H]1CC[C@]2(C)CC[C@]3(C)[C@H](CC[C@@H]4[C@@]5(C)CCC(=O)C(C)(C)[C@@H]5C[C@H](O)[C@]43C)[C@@H]12
IC50 [1]: > 10 µM
IC50 [2]: > 10 µM
IC50 [3]: > 10 µM
IC50 (A549): > 10 µM
IC50 (A2780): > 10 µM

IC50 [4]: > 10 µM
SMILES: C=C(CO)[C@@H]1CC[C@]2(C)C[C@H](O)[C@]3(C)[C@H](CC[C@@H]4[C@@]5(C)CCC(=O)C(C)(C)[C@@H]5CC[C@]43C)[C@@H]12
IC50 [1]: > 10 µM
IC50 [2]: > 10 µM
IC50 [3]: > 10 µM
IC50 (A549): > 10 µM
IC50 (A2780): > 10 µM

IC50 [4]: > 10 µM
SMILES: C=C(CO)[C@@H]1CC[C@]2(CO)CC[C@]3(C)[C@H](CC[C@@H]4[C@@]5(C)CC[C@@H](OC(C)=O)C(C)(C)[C@@H]5CC[C@]43C)[C@@H]12
IC50 [1]: 3.21 µM
IC50 [2]: 2.77 µM
IC50 [3]: 4.09 µM
IC50 (A549): 3.35 µM
IC50 (A2780): > 10 µM

IC50 [4]: > 10 µM
SMILES: CC(=O)C1=C2[C@H]3CC[C@@H]4[C@@]5(C)CC[C@@H](O)C(C)(C)[C@@H]5CC[C@@]4(C)[C@]3(C)CC[C@@]2(C)CC1=O
IC50 [1]: > 10 µM
IC50 [2]: > 10 µM
IC50 [3]: > 10 µM
IC50 (A549): > 10 µM
IC50 (A2780): > 10 µM

IC50 [4]: > 10 µM
SMILES: C=C(C)[C@@H]1CC[C@]2(C)CC[C@]3(C)[C@H](CC[C@@H]4[C@@]5(C)CC[C@@H](O)C(C)(C)[C@@H]5CC[C@]43C)[C@@H]12
IC50 [1]: > 10 µM
IC50 [2]: > 10 µM
IC50 [3]: > 10 µM
IC50 (A549): > 10 µM
IC50 (A2780): > 10 µM

IC50 [4]: > 10 µM
SMILES: C=C(CO)[C@@H]1CC[C@]2(C)CC[C@]3(C)[C@H](CC[C@@H]4[C@@]5(C)CCC(=O)C(C)(C)[C@@H]5CC[C@]43C)[C@@H]12
IC50 [1]: > 10 µM
IC50 [2]: > 10 µM
IC50 [3]: > 10 µM
IC50 (A549): > 10 µM
IC50 (A2780): > 10 µM

IC50 [4]: > 10 µM
SMILES: CC(=O)[C@@H]1CC[C@]2(CO)CC[C@]3(C)[C@H](CC[C@@H]4[C@@]5(C)CC[C@@H](O)C(C)(C)[C@@H]5CC[C@]43C)[C@@H]12 (relative stereo)
IC50 [1]: > 10 µM
IC50 [2]: > 10 µM
IC50 [3]: > 10 µM
IC50 (A549): > 10 µM
IC50 (A2780): > 10 µM

IC50 [4]: > 10 µM
SMILES: CC(=O)OC[C@]12CC[C@@H](C(C)=O)[C@@H]1[C@H]1CC[C@@H]3[C@@]4(C)CC[C@@H](O)C(C)(C)[C@@H]4CC[C@@]3(C)[C@]1(C)CC2 (relative stereo)
IC50 [1]: > 10 µM
IC50 [2]: > 10 µM
IC50 [3]: > 10 µM
IC50 (A549): > 10 µM
IC50 (A2780): > 10 µM

IC50 [4]: 0.53 µM
SMILES: COc1cc(/C=C/C(=O)CC(=O)/C=C/c2ccc(O)c(OC)c2)ccc1O [CURCUMIN]
viability [5]: 93.3%

IC50 [4]: > 10 µM
SMILES: C=C(C)[C@@H]1CC[C@]2(C)CC[C@]3(C)[C@H](CC[C@@H]4[C@@]5(C)CC[C@H](O)C(C)(C)[C@@H]5CC[C@]43C)[C@@H]12 [LUPEOL]
IC50 [1]: > 10 µM
IC50 [2]: > 10 µM
IC50 [3]: > 10 µM
IC50 (A549): > 10 µM
IC50 (A2780): > 10 µM

Further lines, the compound ahead of its results:

SMILES: CC(=O)[C@@H]1CC[C@]2(C)CC[C@]3(C)[C@H](CC[C@@H]4[C@@]5(C)CC[C@@H](O)C(C)(C)[C@@H]5CC[C@]43C)[C@@H]12
IC50 [1]: > 10 µM
IC50 [2]: > 10 µM
IC50 [3]: > 10 µM
IC50 [4]: > 10 µM
IC50 (A549): > 10 µM
IC50 (A2780): > 10 µM

SMILES: CC(=O)[C@@H]1CC[C@]2(C)CC[C@]3(C)[C@H](CC[C@@H]4[C@@]5(C)CC[C@H](O)C(C)(C)[C@@H]5CC[C@]43C)[C@@H]12
IC50 [1]: > 10 µM
IC50 [2]: > 10 µM
IC50 [3]: > 10 µM
IC50 [4]: 6.09 µM
IC50 (A549): > 10 µM
IC50 (A2780): > 10 µM
viability [5]: 93.5%

SMILES: CC(=O)O[C@@H]1CC[C@]2(C)[C@H]3CC[C@@H]4[C@H]5[C@H]([C@H](C)C(=O)O)CC[C@]5(C)CC[C@@]4(C)[C@]3(C)CC[C@H]2C1(C)C
IC50 [1]: > 10 µM
IC50 [2]: > 10 µM
IC50 [3]: > 10 µM
IC50 [4]: 7.48 µM
IC50 (A549): > 10 µM
IC50 (A2780): > 10 µM
viability [5]: 98.5%

SMILES: C[C@@H](C(=O)O)[C@@H]1CC[C@]2(C)CC[C@]3(C)[C@H](CC[C@@H]4[C@@]5(C)CC[C@@H](O)C(C)(C)[C@@H]5CC[C@]43C)[C@@H]12
IC50 [1]: > 10 µM
IC50 [2]: > 10 µM
IC50 [3]: > 10 µM
IC50 [4]: 7.8 µM
IC50 (A549): > 10 µM
IC50 (A2780): > 10 µM
viability [5]: 96.8%

SMILES: C[C@@H](CO)[C@@H]1CC[C@]2(C)CC[C@]3(C)[C@H](CC[C@@H]4[C@@]5(C)CCC(=O)C(C)(C)[C@@H]5C[C@H](O)[C@]43C)[C@@H]12
IC50 [1]: > 10 µM
IC50 [2]: > 10 µM
IC50 [3]: > 10 µM
IC50 [4]: > 10 µM
IC50 (A549): > 10 µM
IC50 (A2780): > 10 µM

SMILES: C=C(C=O)[C@@H]1CC[C@]2(C)CC[C@]3(C)[C@H](CC[C@@H]4[C@@]5(C)CC[C@@H](O)C(C)(C)[C@@H]5CC[C@]43C)[C@@H]12
IC50 [1]: > 10 µM
IC50 [2]: > 10 µM
IC50 [3]: > 10 µM
IC50 [4]: > 10 µM
IC50 (A549): > 10 µM
IC50 (A2780): > 10 µM

SMILES: C=C(CO)[C@@H]1CC[C@]2(C)CC[C@]3(C)[C@H](CC[C@@H]4[C@@]5(C)CC[C@H](O)C(C)(C)[C@@H]5CC[C@]43C)[C@@H]12
IC50 [1]: > 10 µM
IC50 [2]: > 10 µM
IC50 [3]: > 10 µM
IC50 [4]: > 10 µM
IC50 (A549): > 10 µM
IC50 (A2780): > 10 µM

SMILES: CC(=O)O[C@@H]1CC[C@]2(C)[C@H]3CC[C@@H]4[C@H]5[C@H](C(C)=O)CC[C@]5(CO)CC[C@@]4(C)[C@]3(C)CC[C@H]2C1(C)C (relative stereo)
IC50 [1]: > 10 µM
IC50 [2]: > 10 µM
IC50 [3]: > 10 µM
IC50 [4]: > 10 µM
IC50 (A549): > 10 µM
IC50 (A2780): > 10 µM

SMILES: C=C(C)[C@@H]1CC[C@]2(CO)CC[C@]3(C)[C@H](CC[C@@H]4[C@@]5(C)CC[C@@H](O)C(C)(C)[C@@H]5CC[C@]43C)[C@@H]12 [3-EPI-BETULIN]
IC50 [1]: > 10 µM
IC50 [2]: > 10 µM
IC50 [3]: > 10 µM
IC50 [4]: 2.54 µM
IC50 (A549): > 10 µM
IC50 (A2780): > 10 µM
viability [5]: 89.3%

SMILES: C=C(C)[C@@H]1CC[C@]2(CO)CC[C@]3(C)[C@H](CC[C@@H]4[C@@]5(C)CC[C@H](O)C(C)(C)[C@@H]5CC[C@]43C)[C@@H]12 [BETULIN]
IC50 [1]: > 10 µM
IC50 [2]: > 10 µM
IC50 [3]: > 10 µM
IC50 [4]: > 10 µM
IC50 (A549): > 10 µM
IC50 (A2780): > 10 µM

SMILES: C=C(C)[C@@H]1CC[C@]2(CO)CC[C@]3(C)[C@H](CC[C@@H]4[C@@]5(C)CCC(=O)C(C)(C)[C@@H]5CC[C@]43C)[C@@H]12 [BETULONE]
IC50 [1]: > 10 µM
IC50 [2]: > 10 µM
IC50 [3]: > 10 µM
IC50 [4]: > 10 µM
IC50 (A549): > 10 µM
IC50 (A2780): > 10 µM

SMILES: CC(=O)O[C@H]1C(=O)[C@@]2(C)[C@H]([C@H](OC(=O)c3ccccc3)[C@]3(O)C[C@H](OC(=O)[C@H](O)[C@@H](NC(=O)c4ccccc4)c4ccccc4)C(C)=C1C3(C)C)[C@]1(OC(C)=O)CO[C@@H]1C[C@@H]2O [PACLITAXEL]
IC50 [2]: 0.011 µM
IC50 [3]: 0.026 µM
IC50 (A549): 0.032 µM
IC50 (A2780): 0.59 µM

Source: ChEMBL document CHEMBL3108727, “Lupane triterpenoids from the stems of Euonymus carnosus” (J Nat Prod, 2014)
